Assay results from patent US4175081A, “5-Substituted thiadiazole ureas” (priority 1977, dated 1979).

Columns and labels:
[1] = tested on: Crabgrass (CG); experiment: Post-emergence herbicide test; type: in vivo, Digitaria sanquinalis; conditions: Digitaria sanguinalis, post-emergence, 336 h, two weeks after treatment
Summary of the method: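 Crabgrass (Digitaria sanquinalis) was surface seeded individually in 3' plastic pots of potting soil, covered with screened soil, and watered by sub-irrigation in greenhouse trays. Planting was staggered so seedlings reached the target stage together. Post-emergence sprays were applied in a hood with a removable belt and fixed nozzle, and control was visually rated two weeks after treatment.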

[2] = tested on: Cotton (CT); experiment: Post-emergence herbicide test; type: in vivo, Gossypium hirsutum var. DPL smooth leaf; conditions: Gossypium hirsutum, post-emergence, 336 h, two weeks after treatment
Summary of the method: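 Cotton (Gossypium hirsutum var. DPL smooth leaf) was grown in 3' plastic pots of potting soil, four seeds per pot, planted at a depth equal to the seed diameter and watered by sub-irrigation. At the stage of expanded cotyledons with the first true leaf 1' long, plants were sprayed post-emergence in a hood with a fixed nozzle over a moving belt. Percent control was rated visually two weeks later.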

[3] = tested on: Barnyard grass (BG); experiment: Pre-emergence herbicide test; type: in vivo; conditions: Echinochloa crus-galli, 336 h, two weeks after treatment
Summary of the method: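 Barnyard grass surface-seeded in potting soil and sprayed pre-emergence one day after seeding, at 8 or 4 lb compound/acre in 38 gal/acre spray volume. Pots kept in greenhouse with sub-irrigation only; injury or control rated visually two weeks after treatment.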

[4] = tested on: Bean (BN); experiment: Pre-emergence herbicide test; type: in vivo, Phaseolus vulgaris var. Black Valentine; conditions: Phaseolus vulgaris, 336 h, two weeks after treatment
Summary of the method: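 Black Valentine bean was seeded in potting soil one day before spraying. Compound was applied pre-emergence at 8 lbs/acre (also 4 lbs/acre) in 38 gallons per acre. Plants were sub-irrigated and injury or control was rated visually after two weeks.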

[5] = tested on: Crabgrass (CG); experiment: Pre-emergence herbicide test; type: in vivo, Digitaria sanquinalis; conditions: Digitaria sanguinalis, pre-emergence, 336 h, two weeks after treatment
Summary of the method: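 Crabgrass (Digitaria sanquinalis) was surface seeded in 3' plastic pots of potting soil, covered with screened soil, and watered by sub-irrigation in greenhouse trays. Pots were seeded one day before spraying in a hood with a moving belt and fixed nozzle. Plants stayed in the greenhouse on sub-irrigation, and pre-emergence control was rated visually two weeks after treatment.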

[6] = tested on: Amaranth pigweed (PW); experiment: Pre-emergence herbicide test; type: in vivo, Amaranthus retroflexus; conditions: 336 h, two weeks after treatment
Description: All crop and weed species were planted individually in 3' plastic pots containing potting soil. Four seeds each of corn, cotton, and snapbeans were seeded to a depth equal to the diameter of the seed. All other species were surface seeded and sprinkled with screened soil in an amount sufficient to cover the seed. Immediately after planting, all pots were watered by sub-irrigation in greenhouse trays. Pots for the pre-emergence phase were seeded one day before treatment.
Compounds were tested at rates of application equivalent to 8 lbs. of actual compound per acre in a spray volume of 38 gallons per acre. Spray hood constants required to deliver the above volume are as follows:
Formulations for spray applications were prepared in 50 ml volumes with the following three components:
Formulations for the 4 lbs/acre rate were prepared by adjusting the amount of active ingredient accordingly.
Spray applications were made in a hood containing a removable belt and fixed spray nozzle. For passage through the spray hood, one pot of each specie (pre-emergence phase) was placed on the rear half of the flat. Treatments were removed to the greenhouse after spraying. Watering during the observation period was done only by sub-irrigation.
Two weeks after treatment, pre- and post-emergence injury or control was visually rated, and the results were as shown in the following tables. Pre-emergence data are provided in TABLE III and post-emergence data are provided in TABLE IV, for compounds having the formula illustrated in TABLE I. Correspondingly, pre-emergence and post-emergence data, respectively, are set forth in TABLES V AND VI, for compounds having the formula illustrated in TABLE II.

[7] = tested on: Cotton (CT); experiment: Pre-emergence herbicide test; type: in vivo, Gossypium hirsutum var. DPL smooth leaf; conditions: Gossypium hirsutum, 336 h, two weeks after treatment
Summary of the method: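 Crop and weed species seeded one day before treatment, then sprayed pre-emergence at 8 lbs actual compound per acre (also 4 lbs/acre formulations) in 38 gallons per acre. Pots kept in greenhouse with sub-irrigation only; injury or control visually rated two weeks after treatment.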

[8] = tested on: Turnip (TP); experiment: Post-emergence herbicide test; type: in vivo, Brassica sp.; conditions: Brassica rapa, post-emergence, 336 h, two weeks after treatment
Summary of the method: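 A greenhouse post-emergence herbicide test on turnip. Seeds were sown on the surface of potting soil in 3' plastic pots, lightly covered with screened soil and watered from below. Planting was timed so seedlings had 1 or 2 true leaves above the cotyledons at spraying, done in a hood with a fixed nozzle. Control or injury was scored by eye after two weeks.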

[9] = tested on: Turnip (TP); experiment: Pre-emergence herbicide test; type: in vivo, Brassica sp.; conditions: Brassica rapa, pre-emergence, 336 h, two weeks after treatment
Summary of the method: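 Turnip (Brassica sp.) seeds were surface sown in 3' plastic pots of potting soil, covered with a thin layer of screened soil, and sub-irrigated in greenhouse trays. Pots were seeded one day ahead of treatment, sprayed pre-emergence under a hood with a fixed nozzle and moving belt, then kept in the greenhouse.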

[10] = tested on: Corn (CN); experiment: Pre-emergence herbicide test; type: in vivo; conditions: Zea mays, 336 h, two weeks after treatment
Summary of the method: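 Four corn seeds per pot, sown at seed-diameter depth one day before spraying, got soil surface treatment at 8 lbs/acre (4 lbs/acre formulations also prepared) in 38 gallons/acre. Pots were greenhouse-held with sub-irrigation only. Injury or control was scored visually two weeks after treatment.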

[11] = tested on: Johnson grass (JG); experiment: Pre-emergence herbicide test; type: in vivo, Sorgum helepense; conditions: Sorghum halepense, 336 h, two weeks after treatment
Summary of the method: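 Pots seeded one day before spraying; compound applied pre-emergence at 8 lbs/acre (or 4 lbs/acre) in 38 gallons/acre spray volume. Sub-irrigated in greenhouse; injury/control rated visually two weeks after treatment.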

[12] = tested on: Bean (BN); experiment: Post-emergence herbicide test; type: in vivo, Phaseolus vulgaris var. Black Valentine; conditions: Phaseolus vulgaris, post-emergence, 336 h, two weeks after treatment
Summary of the method: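 Snapbean (Phaseolus vulgaris var. Black Valentine) was tested post-emergence. Four seeds were sown in 3' plastic pots of potting soil at a depth equal to the seed diameter, then sub-irrigated in greenhouse trays. Planting dates were staggered so plants were sprayed once primary leaves had expanded, with the growing point at the primary leaf nodes.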

## CCS(=O)(=O)c1nnc(N(C)C(=O)NC)s1 [Example 91]
[1]; 0.5 lb/acre
  pest or weed control at 560.425 g/ha: 40%
[1]; 1 lb/acre
  pest or weed control at 1120.85 g/ha: 60%
[1]; 2 lb/acre
  pest or weed control: 70%
[1]; 4 lb/acre
  pest or weed control at 4483.4 g/ha: 100%
[2]; 0.5 lb/acre
  pest or weed control at 560.425 g/ha: 100%
[2]; 1 lb/acre
  pest or weed control at 1120.85 g/ha: 100%
[2]; 2 lb/acre
  pest or weed control at 2241.7 g/ha: 100%
[2]; 4 lb/acre
  pest or weed control at 4483.4 g/ha: 100%
[3]; 0.5 lb/acre
  pest or weed control at 560.425 g/ha: 30%
[3]; 1 lb/acre
  pest or weed control at 1120.85 g/ha: 60%
[3]; 2 lb/acre
  pest or weed control at 2241.7 g/ha: 90%
[3]; 4 lb/acre
  pest or weed control at 4483.4 g/ha: 100%
[4]; 0.5 lb/acre
  pest or weed control at 560.425 g/ha: 10%
[4]; 1 lb/acre
  pest or weed control at 1120.85 g/ha: 70%
[4]; 2 lb/acre
  pest or weed control at 2241.7 g/ha: 70%
[4]; 4 lb/acre
  pest or weed control at 4483.4 g/ha: 100%
[5]; 0.5 lb/acre
  pest or weed control at 560.425 g/ha: 80%
[5]; 1 lb/acre
  pest or weed control at 1120.85 g/ha: 90%
[5]; 2 lb/acre
  pest or weed control at 2241.7 g/ha: 90%
[5]; 4 lb/acre
  pest or weed control at 4483.4 g/ha: 100%
[6]; 0.5 lb/acre
  pest or weed control at 560.425 g/ha: 40%
[6]; 1 lb/acre
  pest or weed control at 1120.85 g/ha: 90%
[6]; 2 lb/acre
  pest or weed control at 2241.7 g/ha: 100%
[6]; 4 lb/acre
  pest or weed control at 4483.4 g/ha: 100%
[7]; 0.5 lb/acre
  pest or weed control at 560.425 g/ha: 30%
[7]; 1 lb/acre
  pest or weed control at 1120.85 g/ha: 50%
[7]; 2 lb/acre
  pest or weed control at 2241.7 g/ha: 50%
[7]; 4 lb/acre
  pest or weed control at 4483.4 g/ha: 90%
[8]; 0.5 lb/acre
  pest or weed control at 560.425 g/ha: 100%
[8]; 1 lb/acre
  pest or weed control at 1120.85 g/ha: 100%
[8]; 2 lb/acre
  pest or weed control at 2241.7 g/ha: 100%
[8]; 4 lb/acre
  pest or weed control at 4483.4 g/ha: 100%
[9]; 0.5 lb/acre
  pest or weed control at 560.425 g/ha: 60%
[9]; 1 lb/acre
  pest or weed control at 1120.85 g/ha: 60%
[9]; 2 lb/acre
  pest or weed control at 2241.7 g/ha: 90%
[9]; 4 lb/acre
  pest or weed control at 4483.4 g/ha: 100%
[10]; 0.5 lb/acre
  pest or weed control at 560.425 g/ha: 10%
[10]; 1 lb/acre
  pest or weed control at 1120.85 g/ha: 50%
[10]; 2 lb/acre
  pest or weed control at 2241.7 g/ha: 50%
[10]; 4 lb/acre
  pest or weed control at 4483.4 g/ha: 60%
[11]; 0.5 lb/acre
  pest or weed control at 560.425 g/ha: 50%
[11]; 1 lb/acre
  pest or weed control at 1120.85 g/ha: 50%
[11]; 2 lb/acre
  pest or weed control at 2241.7 g/ha: 60%
[11]; 4 lb/acre
  pest or weed control at 4483.4 g/ha: 100%
[12]; 0.5 lb/acre
  pest or weed control at 560.425 g/ha: 100%
[12]; 1 lb/acre
  pest or weed control at 1120.85 g/ha: 100%
[12]; 2 lb/acre
  pest or weed control at 2241.7 g/ha: 100%
[12]; 4 lb/acre
  pest or weed control at 4483.4 g/ha: 100%
